Test results reported in patent publication US12404285B2, “KRAS G12D proteolysis targeting chimeras” (PAQ Therapeutics Inc., priority 2022, dated 2025).

Biological target: T1, KRAS (G12D)-HiBit in AsPc-1-KRAS (G12D)-HiBit-KI cell (Homo sapiens, UniProt P01116, G12D)
T1 construct: host or cells: AsPc-1-KRAS (G12D)-HiBit-KI cells (knock-in line)
Test: G12D HiBit assay
Type: cell-based
Details: 24 hours compound treatment, absolute DC50, read-out: Average PHA DC50
Procedure, shortened: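 Degradation of endogenous HiBiT-tagged KRAS G12D in AsPc-1 knock-in cells read after 24 h compound exposure (0.015-300 nM, 3-fold steps) by Nano-Glo HiBiT lytic luminescence. Signal normalised to DMSO-only cells; absolute DC50 derived by curve fitting.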

T1 sequence (P01116 1-188 isoform P01116-2 G12D): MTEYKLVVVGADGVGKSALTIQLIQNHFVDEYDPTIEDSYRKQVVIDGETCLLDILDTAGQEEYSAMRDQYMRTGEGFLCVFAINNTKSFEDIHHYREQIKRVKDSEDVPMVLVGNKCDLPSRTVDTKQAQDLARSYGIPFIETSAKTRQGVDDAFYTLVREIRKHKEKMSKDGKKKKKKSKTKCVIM

C#Cc1c(F)ccc2cc(O)cc(-c3ncc4c(N5CC6CCC(C5)N6)nc(OC[C@@]56CCCN5[C@H](COC(=O)N5CCC(CN7CCC(c8ccc9c(c8)n(C)c(=O)n9C8CCC(=O)NC8=O)CC7)CC5)CC6)nc4c3F)c12 (stereo partly drawn) [Compound 82, [(3S,8S)-8-[[4-(3,8-Diazabicyclo[3.2.1]octan-3-yl)-7-(8-ethynyl-7-fluoro-3-hydroxy-1-naphthyl)-8-fluoro-pyrido[4,3-d]pyrimidin-2-yl]oxymethyl]-1,2,3,5,6,7-hexahydropyrrolizin-3-yl]methyl 4-[[4-[1-(2,6-dioxo-3-piperidyl)-3-methyl-2-oxo-benzimidazol-5-yl]-1-piperidyl]methyl] piperidine-1-carboxylate]
DC50: < 100 nM

C#Cc1c(F)ccc2cccc(-c3ncc4c(N5CC6CCC(C5)N6)nc(OC[C@@]56CCCN5[C@H](COC(=O)N5CC(OC7CCN(Cc8cccc9c8n(C)c(=O)n9C8CCC(=O)NC8=O)CC7)C5)CC6)nc4c3F)c12 (stereo partly drawn) [Compound 83, [(3S,8S)-8-[[4-(3,8-Diazabicyclo[3.2.1]octan-3-yl)-7-(8-ethynyl-7-fluoro-1-naphthyl)-8-fluoro-pyrido[4,3-d]pyrimidin-2-yl]oxymethyl]-1,2,3,5,6,7-hexahydropyrrolizin-3-yl]methyl3-[[1-[[1-(2,6-dioxo-3-piperidyl)-3-methyl2-oxo-benzimidazol-4-yl]methyl]-4-piperidyl]oxy]azetidine-1-carboxylate]
DC50: < 100 nM

C#Cc1c(F)ccc2cccc(-c3ncc4c(N5CC6CCC(C5)N6)nc(OC[C@@]56CCCN5[C@H](COC(=O)N5CCC(CCN7CCN(Cc8cccc9c8n(C)c(=O)n9C8CCC(=O)NC8=O)CC7)CC5)CC6)nc4c3F)c12 (stereo partly drawn) [Compound 84, [(3S,8S)-8-[[4-(3,8-Diazabicyclo[3.2.1]octan-3-yl)-7-(8-ethynyl-7-fluoro-1-naphthyl)-8-fluoro-pyrido[4,3-d]pyrimidin-2-yl]oxymethyl]-1,2,3,5,6,7-hexahydropyrrolizin-3-yl]methyl4-[2-[4-[[1-(2,6-dioxo-3-piperidyl)-3-methyl-2-oxo-benzimidazol-4-yl]methyl]piperazin-1-yl]ethyl]piperidine-1-carboxylate]
DC50: < 100 nM

C#Cc1c(F)ccc2cccc(-c3ncc4c(N5CC6CCC(C5)N6)nc(OC[C@@]56CCCN5[C@H](COC(=O)N5CCN(CCC7CCN(Cc8cccc9c8n(C)c(=O)n9C8CCC(=O)NC8=O)CC7)CC5)CC6)nc4c3F)c12 (stereo partly drawn) [Compound 85, [(3S,8S)-8-[[4-(3,8-Diazabicyclo[3.2.1]octan-3-yl)-7-(8-ethynyl-7-fluoro-1-naphthyl)-8-fluoro-pyrido[4,3-d]pyrimidin-2-yl]oxymethyl]-1,2,3,5,6,7-hexahydropyrrolizin-3-yl]methyl4-[2-[1-[[1-(2,6-dioxo-3-piperidyl)-3-methyl-2-oxo-benzimidazol-4-yl]methyl]-4-piperidyl]ethyl]piperazine-1-carboxylate]
DC50: < 100 nM

C#Cc1c(F)ccc2cccc(-c3ncc4c(N5CC6CCC(C5)N6)nc(OC[C@@]56CCCN5[C@H](COC(=O)N5CCC(CCN7CCN(Cc8ccc9c(c8)n(C)c(=O)n9C8CCC(=O)NC8=O)CC7)CC5)CC6)nc4c3F)c12 (stereo partly drawn) [Compound 87, [(3S,8S)-8-[[4-(3,8-Diazabicyclo[3.2.1]octan-3-yl)-7-(8-ethynyl-7-fluoro-1-naphthyl)-8-fluoro-pyrido[4,3-d]pyrimidin-2-yl]oxymethyl]-1,2,3,5,6,7-hexahydropyrrolizin-3-yl]methyl 4-[2-[4-[[1-(2,6-dioxo-3-piperidyl)-3-methyl-2-oxo-benzimidazol-5-yl]methyl]piperazin-1-yl]ethyl]piperidine-1-carboxylate]
DC50: < 100 nM

C#Cc1c(F)ccc2cccc(-c3ncc4c(N5CC6CCC(C5)N6)nc(OC[C@@]56CCCN5[C@H](COC(=O)N5CCN(CCC7CCN(Cc8ccc9c(c8)n(C)c(=O)n9C8CCC(=O)NC8=O)CC7)CC5)CC6)nc4c3F)c12 (stereo partly drawn) [Compound 88, [(3S,8S)-8-[[4-(3,8-Diazabicyclo[3.2.1]octan-3-yl)-7-(8-ethynyl-7-fluoro-1-naphthyl)-8-fluoro-pyrido[4,3-d]pyrimidin-2-yl]oxymethyl]-1,2,3,5,6,7-hexahydropyrrolizin-3-yl]methyl 4-[2-[1-[[1-(2,6-dioxo-3-piperidyl)-3-methyl-2-oxo-benzimidazol-5-yl]methyl]-4-piperidyl]ethyl]piperazine-1-carboxylate]
DC50: < 100 nM

C#Cc1c(F)ccc2cccc(-c3ncc4c(N5CC6CCC(C5)N6)nc(OC[C@@]56CCCN5[C@H](COC(=O)N5CC(OC7CCN(Cc8ccc9c(c8)n(C)c(=O)n9C8CCC(=O)NC8=O)CC7)C5)CC6)nc4c3F)c12 (stereo partly drawn) [Compound 89, [(3S,8S)-8-[[4-(3,8-Diazabicyclo[3.2.1]octan-3-yl)-7-(8-ethynyl-7-fluoro-1-naphthyl)-8-fluoro-pyrido[4,3-d]pyrimidin-2-yl]oxymethyl]-1,2,3,5,6,7-hexahydropyrrolizin-3-yl]methyl 3-[[1-[[1-(2,6-dioxo-3-piperidyl)-3-methyl-2-oxo-benzimidazol-5-yl]methyl]-4-piperidyl]oxy]azetidine-1-carboxylate]
DC50: < 100 nM

C#Cc1c(F)ccc2cccc(-c3ncc4c(N5C[C@H]6CC[C@@H](C5)N6)nc(OC[C@@]56CCCN5[C@H](COC(=O)N5CCC(CC7CCN(c8ccc9c(c8)n(C)c(=O)n9C8CCC(=O)NC8=O)CC7)CC5)CC6)nc4c3F)c12 (stereo partly drawn) [Compound 90, ((3S,7aS)-7a-(((4-((1R,5S)-3,8-Diazabicyclo[3.2.1]octan-3-yl)-7-(8-ethynyl-7-fluoronaphthalen-1-yl)-8-fluoropyrido[4,3-d]pyrimidin-2-yl)oxy)methyl)hexahydro-1H-pyrrolizin-3-yl)methyl4-((1-(1-(2,6-dioxopiperidin-3-yl)-3-methyl-2-oxo-2,3-dihydro-1H-benzo[d]imidazol-5-yl)piperidin-4-yl)methyl)piperidine-1-carboxylate]
DC50: < 100 nM

C#Cc1c(F)ccc2cccc(-c3ncc4c(N5CC6CCC(C5)N6)nc(OC[C@@]56CCCN5[C@H](COC(=O)N5CCC(OCC#CC#Cc7ccc8c(c7)n(C)c(=O)n8C7CCC(=O)NC7=O)CC5)CC6)nc4c3F)c12 (stereo partly drawn) [Compound 92, [(3S,8S)-8-[[4-(3,8-Diazabicyclo[3.2.1]octan-3-yl)-7-(8-ethynyl-7-fluoro-1-naphthyl)-8-fluoro-pyrido[4,3-d]pyrimidin-2-yl]oxymethyl]-1,2,3,5,6,7-hexahydropyrrolizin-3-yl]methyl 4-[5-[1-(2,6-dioxo-3-piperidyl)-3-methyl-2-oxo-benzimidazol-5-yl]penta-2,4-diynoxy]piperidine-1-carboxylate]
DC50: < 100 nM

C#Cc1c(F)ccc2cccc(-c3ncc4c(N5CC6CCC(C5)N6)nc(OC[C@@]56CCCN5[C@H](COC(=O)N5CCC(OCC#CC#Cc7cccc8c7n(C)c(=O)n8C7CCC(=O)NC7=O)CC5)CC6)nc4c3F)c12 (stereo partly drawn) [Compound 93, [(3S,8S)-8-[[4-(3,8-Diazabicyclo[3.2.1]octan-3-yl)-7-(8-ethynyl-7-fluoro-1-naphthyl)-8-fluoro-pyrido[4,3-d]pyrimidin-2-yl]oxymethyl]-1,2,3,5,6,7-hexahydropyrrolizin-3-yl]methyl4-[5-[1-(2,6-dioxo-3-piperidyl)-3-methyl-2-oxo-benzimidazol-4-yl]penta-2,4-diynoxy]piperidine-1-carboxylate]
DC50: < 100 nM

C#Cc1c(F)ccc2cccc(-c3ncc4c(N5CC6CCC(C5)N6)nc(OC[C@@]56CCCN5[C@H](COC(=O)N5CCC(Cn7cc(-c8ccc9c(c8)n(C)c(=O)n9C8CCC(=O)NC8=O)nn7)CC5)CC6)nc4c3F)c12 (stereo partly drawn) [Compound 94, [(3S,8S)-8-[[4-(3,8-Diazabicyclo[3.2.1]octan-3-yl)-7-(8-ethynyl-7-fluoro-1-naphthyl)-8-fluoro-pyrido[4,3-d]pyrimidin-2-yl]oxymethyl]-1,2,3,5,6,7-hexahydropyrrolizin-3-yl]methyl 4-[[4-[1-(2,6-dioxo-3-piperidyl)-3-methyl-2-oxo-benzimidazol-5-yl]triazol-1-yl]methyl]piperidine-1-carboxylate]
DC50: ≥ 300 nM

C#Cc1c(F)ccc2cccc(-c3ncc4c(N5CC6CCC(C5)N6)nc(OC[C@@]56CCCN5[C@H](COC(=O)N5CCC(CCn7cc(-c8ccc9c(c8)n(C)c(=O)n9C8CCC(=O)NC8=O)nn7)CC5)CC6)nc4c3F)c12 (stereo partly drawn) [Compound 95, [(3S,8S)-8-[[4-(3,8-Diazabicyclo[3.2.1]octan-3-yl)-7-(8-ethynyl-7-fluoro-1-naphthyl)-8-fluoro-pyrido[4,3-d]pyrimidin-2-yl]oxymethyl]-1,2,3,5,6,7-hexahydropyrrolizin-3-yl]methyl 4-[2-[4-[1-(2,6-dioxo-3-piperidyl)-3-methyl-2-oxo-benzimidazol-5-yl]triazol-1-yl]ethyl]piperidine-1-carboxylate]
DC50: ≥ 300 nM

C#Cc1c(F)ccc2cccc(-c3ncc4c(N5CC6CCC(C5)N6)nc(OC[C@@]56CCCN5[C@H](COC(=O)N5CCC(Cn7cc(-c8cccc9c8n(C)c(=O)n9C8CCC(=O)NC8=O)nn7)CC5)CC6)nc4c3F)c12 (stereo partly drawn) [Compound 96, [(3S,8S)-8-[[4-(3,8-Diazabicyclo[3.2.1]octan-3-yl)-7-(8-ethynyl-7-fluoro-1-naphthyl)-8-fluoro-pyrido[4,3-d]pyrimidin-2-yl]oxymethyl]-1,2,3,5,6,7-hexahydropyrrolizin-3-yl]methyl 4-[[4-[1-(2,6-dioxo-3-piperidyl)-3-methyl-2-oxo-benzimidazol-4-yl]triazol-1-yl]methyl]piperidine-1-carboxylate]
DC50: ≥ 300 nM

C#Cc1c(F)ccc2cccc(-c3ncc4c(N5CC6CCC(C5)N6)nc(OC[C@@]56CCCN5[C@H](COC(=O)N5CCC(CCn7cc(-c8cccc9c8n(C)c(=O)n9C8CCC(=O)NC8=O)nn7)CC5)CC6)nc4c3F)c12 (stereo partly drawn) [Compound 97, [(3S,8S)-8-[[4-(3,8-Diazabicyclo[3.2.1]octan-3-yl)-7-(8-ethynyl-7-fluoro-1-naphthyl)-8-fluoro-pyrido[4,3-d]pyrimidin-2-yl]oxymethyl]-1,2,3,5,6,7-hexahydropyrrolizin-3-yl]methyl4-[2-[4-[1-(2,6-dioxo-3-piperidyl)-3-methyl-2-oxo-benzimidazol-4-yl]triazol-1-yl]ethyl]piperidine-1-carboxylate]
DC50: < 100 nM
